Data set [1] can be described thus: Hepatotoxicity in renal carcinoma xenografted C57BL/6 mouse assessed as fold increase in plasma ALT at 0.8 mg/kg, ip. Format: toxicity, organism-based. Particulars: in vivo.
The nature of data set [2]: Hepatotoxicity in renal carcinoma xenografted C57BL/6 mouse assessed as fold increase in plasma AST at 0.8 mg/kg, ip. Format: toxicity, organism-based. The following applies: in vivo.
Data set [3] concerns the target T1, Oxysterols receptor LXR-alpha (Homo sapiens, UniProt Q13133).
T1 sequence (Q13133 whole entry): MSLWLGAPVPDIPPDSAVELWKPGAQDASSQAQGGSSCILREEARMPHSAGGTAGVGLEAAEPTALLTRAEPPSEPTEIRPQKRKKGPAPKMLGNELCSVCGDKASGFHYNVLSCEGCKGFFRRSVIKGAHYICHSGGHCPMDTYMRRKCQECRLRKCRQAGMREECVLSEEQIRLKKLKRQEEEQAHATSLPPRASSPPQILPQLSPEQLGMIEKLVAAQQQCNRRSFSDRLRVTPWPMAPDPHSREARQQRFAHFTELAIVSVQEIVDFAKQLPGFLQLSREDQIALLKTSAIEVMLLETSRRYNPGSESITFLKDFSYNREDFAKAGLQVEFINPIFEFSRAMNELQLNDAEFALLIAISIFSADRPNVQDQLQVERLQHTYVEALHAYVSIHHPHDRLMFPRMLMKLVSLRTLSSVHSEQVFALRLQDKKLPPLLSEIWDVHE
The data set is described as follows: Binding affinity to full-length human LXRalpha by surface plasmon resonance assay. In general terms: In SPR one partner is held on a chip, and binding of the other changes the refractive index at the surface.

The nature of data set [4]: Induction of Cholesterol accumulation in human HepG2 cells assessed as fold increase in LDL-cholesterol level at 10 uM after 48 hrs. Format: functional.

Structures are written as SMILES.

Take `CNC(=O)c1cc(Oc2ccc(NC(=O)Nc3ccc(Cl)c(C(F)(F)F)c3)cc2)ccn1` [SORAFENIB]: the “fold change (FC)” value in data set [1] is on record as 4.3; in data set [2], 2.3.

The term Kd denotes the free concentration of one partner at which half of the binding sites on the other are occupied at equilibrium, for simple one-to-one binding. In data set [3], `O=C(O)Cc1cccc(OCCCN(Cc2cccc(C(F)(F)F)c2Cl)CC(c2ccccc2)c2ccccc2)c1` came in with a dissociation constant Kd of 6.97 µM.

Regarding `CC(C)c1c(C(=O)Nc2ccccc2)c(-c2ccccc2)c(-c2ccc(F)cc2)n1CC[C@@H](O)C[C@@H](O)CC(=O)O` [ATORVASTATIN], the “fold change (FC)” value in data set [4] worked out at 2.4.

`C/C=C(\C)C(=O)[C@H](C)/C=C(C)/C=C/C/C(C)=C/Cc1nc(OC)c(OC)c(O)c1C` registered a Kd in data set [3] of 7.22 µM.

The values above are taken from ChEMBL document CHEMBL5034018, “LXR-Mediated Regulation of Marine-Derived Piericidins Aggravates High-Cholesterol Diet-Induced Cholesterol Metabolism Disorder in Mice” (J Med Chem, 2021).
